The results in this text go back to patent US12312324B2, “Fluorine-containing substituted benzothiophene compound, and pharmaceutical composition and application thereof” (Shanghai Institute of Materia Medica, Chinese Academy of …, priority 2019, dated 2025).

For data set [1], the target named is human-derived interferon gene stimulating protein (Homo sapiens, UniProt Q86WV6, G230A/H232R/R293Q/R71H). The data set can be described thus: THP1-Blue-ISG reporter cell screening for activation of interferon gene stimulating protein and promotion of IFN-β expression. As to conditions: 10 μM, THP1-Blue-ISG cells; for Fold change (ratio relative to the control experiment), First experiment / Fold change (ratio relative to the control experiment), Second experiment / Fold change (ratio relative to the control experiment), Average value: 24 hours, OD650; for Fold change (ratio relative to the control experiment), Average value: average of two experiments.

The nature of data set [2]: Pharmacokinetic properties in rats. Format: in vivo.
Setting [3] is: rat, plasma, Intravenous (1 mg/kg).

Entries after “also recorded” stand apart in the source; their conditions may differ.

Usually AUC stands for concentration integrated over time. Low values mean low exposure, high ones high exposure. The term MRT denotes a mean duration of stay, worked out from the concentration-time curve. For orientation: clearance means the volume of plasma or blood freed of the substance per unit of time. Low readings indicate inefficient removal, high ones efficient removal. One may read the half-life as the time in which the quantity being followed falls by half. A lower half-life goes with fast loss. As usually defined, the Cmax is the highest concentration seen after dosing.

Sequence of human-derived interferon gene stimulating protein (Q86WV6 whole entry R71H/G230A/H232R/R293Q): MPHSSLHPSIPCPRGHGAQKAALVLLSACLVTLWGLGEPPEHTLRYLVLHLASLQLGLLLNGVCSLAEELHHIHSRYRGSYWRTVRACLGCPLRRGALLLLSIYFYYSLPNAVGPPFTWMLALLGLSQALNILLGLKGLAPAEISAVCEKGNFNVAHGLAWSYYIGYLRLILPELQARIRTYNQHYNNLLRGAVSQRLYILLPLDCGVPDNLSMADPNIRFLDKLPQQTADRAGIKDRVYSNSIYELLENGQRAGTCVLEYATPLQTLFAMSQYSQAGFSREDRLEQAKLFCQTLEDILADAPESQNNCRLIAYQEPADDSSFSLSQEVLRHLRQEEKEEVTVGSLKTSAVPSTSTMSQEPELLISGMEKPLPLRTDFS

With `COc1cc2cc(C(F)(F)CCC(=O)OC(C)C)sc2cc1OC` [Compound S3], in data set [1], the Judgement result is recorded as “effective (when the Fold change≥2, it is effective)”; the “Fold change (ratio relative to the control experiment), First experiment” value is given as 24.31; the “Fold change (ratio relative to the control experiment), Second experiment” value was 33.69; the “Fold change (ratio relative to the control experiment), Average value” worked out at 29.00.

Take `COc1cc2cc(C(F)(F)CCC(=O)O)sc2cc1OC` [Compound S2]: in data set [2] (intravenous injection, versus compound 1a), the “plasma exposure (AUC) of intravenous injection relative to that of 1a” value was “about 4.4 times”. In addition, the “pharmacokinetic properties (T1/2, Cmax, AUC, MRT) compared with compound 1a (in words)” value in data set [2] (oral or intravenous, versus compound 1a) is on record as “significantly superior; also recorded: significantly better”. Besides, in data set [2] (setting [3]), the AUC worked out at 7180 ng·h/mL, the mean residence time MRT stood at 51.2 min, the clearance worked out at 2.33 mL/min/kg and the half-life was 40.1 min. In data set [2] (rat, plasma, Oral (3 mg/kg)), this molecule showed an AUC of 5820 ng·h/mL, a Cmax of 6910 ng/mL, an MRT of 69 min and a half-life of 44.4 min. Further, in data set [1], the Judgement entry is listed as “effective (when the Fold change≥2, it is effective)”; the “Fold change (ratio relative to the control experiment), First experiment” value came out at 23.95; the “Fold change (ratio relative to the control experiment), Second experiment” value was 25.94; the “Fold change (ratio relative to the control experiment), Average value” was found to be 24.95.

In the case of `COc1cc2cc(C(F)(F)CCC(=O)N(O)C3CC3)sc2cc1OC` [Compound S15], in data set [1], the Judgement result was “effective (when the Fold change≥2, it is effective)”; the “Fold change (ratio relative to the control experiment), First experiment” value amounted to 26.23; the “Fold change (ratio relative to the control experiment), Second experiment” value is 35.12; the “Fold change (ratio relative to the control experiment), Average value” is recorded as 30.68.

Take `COc1cc2cc(C(F)(F)CCC(=O)N(O)C(F)F)sc2cc1OC` [Compound S7]: in data set [1], the Judgement entry is listed as “effective (when the Fold change≥2, it is effective)”; the “Fold change (ratio relative to the control experiment), First experiment” value came to 23.95; the “Fold change (ratio relative to the control experiment), Second experiment” value is 29.94; the “Fold change (ratio relative to the control experiment), Average value” was found to be 26.95.

With `COc1cc2cc(C(F)(F)CCC(=O)N(C)O)sc2cc1OC` [Compound S6], in data set [1], the Judgement entry is recorded as “effective (when the Fold change≥2, it is effective)”; the “Fold change (ratio relative to the control experiment), First experiment” value was determined as 15.82; the “Fold change (ratio relative to the control experiment), Second experiment” value is 26.22; the “Fold change (ratio relative to the control experiment), Average value” worked out at 21.02.

Consider `COc1cc2sc(C(F)(F)CCC(=O)O)cc2c(F)c1OC` [Compound S19], for which, in data set [1], the Judgement entry was “effective (when the Fold change≥2, it is effective)”; the “Fold change (ratio relative to the control experiment), First experiment” value is 25.73; the “Fold change (ratio relative to the control experiment), Second experiment” value came out at 31.81; the “Fold change (ratio relative to the control experiment), Average value” turned out to be 28.77.

Turning to `COc1cc2cc(C(F)(F)CCC(=O)N(O)C(C)C)sc2cc1OC` [Compound S10], in data set [1], the Judgement entry was “effective (when the Fold change≥2, it is effective)”; the “Fold change (ratio relative to the control experiment), First experiment” value is recorded as 25.41; the “Fold change (ratio relative to the control experiment), Second experiment” value is recorded as 34.36; the “Fold change (ratio relative to the control experiment), Average value” was determined as 29.89.

With `COc1cc2cc(C(F)(F)CCC(=O)N(O)Cc3ccccc3)sc2cc1OC` [Compound S11], in data set [1], the Judgement entry is “effective (when the Fold change≥2, it is effective)”; the “Fold change (ratio relative to the control experiment), First experiment” value is 20.44; the “Fold change (ratio relative to the control experiment), Second experiment” value is on record as 30.93; the “Fold change (ratio relative to the control experiment), Average value” is 25.69.

Regarding `COc1cc2sc(C(F)(F)CCC(=O)O)cc2cc1Br` [Compound S28], in data set [1], the Judgement result is “effective (when the Fold change≥2, it is effective)”; the “Fold change (ratio relative to the control experiment), First experiment” value was 23.75; the “Fold change (ratio relative to the control experiment), Second experiment” value is 33.73; the “Fold change (ratio relative to the control experiment), Average value” is recorded as 28.74.

For `COc1cc2cc(C(F)(F)CCC(=O)NOc3ccccc3)sc2cc1OC` [Compound S18], in data set [1], the Judgement result is given as “effective (when the Fold change≥2, it is effective)”; the “Fold change (ratio relative to the control experiment), First experiment” value turned out to be 17.62; the “Fold change (ratio relative to the control experiment), Second experiment” value was 28.34; the “Fold change (ratio relative to the control experiment), Average value” is reported as 22.98.

In the case of `CO/C1=C(\OC)C/C(F)=c2/cc(C(F)(F)CCC(=O)N(O)C(C)C)s/c2=C/C1` [Compound S21], in data set [1], the Judgement result is “effective (when the Fold change≥2, it is effective)”; the “Fold change (ratio relative to the control experiment), First experiment” value is reported as 27.51; the “Fold change (ratio relative to the control experiment), Second experiment” value is 32.63; the “Fold change (ratio relative to the control experiment), Average value” is recorded as 30.07.

`COC1=C(OC)CC=c2cc(C(F)CCCC(=O)N(O)C(C)C)sc2=C1` (stereo not shown) [Compound S24]: in data set [1], the Judgement result is on record as “effective (when the Fold change≥2, it is effective)”; the “Fold change (ratio relative to the control experiment), First experiment” value came to 15.53; the “Fold change (ratio relative to the control experiment), Second experiment” value came out at 24.54; the “Fold change (ratio relative to the control experiment), Average value” stood at 20.04.

For the molecule `C=Cc1cc2cc(C(F)(F)CCC(=O)O)sc2cc1OC` [Compound S29], in data set [1], the Judgement result is listed as “effective (when the Fold change≥2, it is effective)”; the “Fold change (ratio relative to the control experiment), First experiment” value is given as 25.26; the “Fold change (ratio relative to the control experiment), Second experiment” value was 34.05; the “Fold change (ratio relative to the control experiment), Average value” worked out at 29.66.

As for `COc1cc2cc(C(F)(F)CCC(=O)N(O)C(F)(F)c3ccccc3)sc2cc1OC` [Compound S12], in data set [1], the Judgement result is “effective (when the Fold change≥2, it is effective)”; the “Fold change (ratio relative to the control experiment), First experiment” value is on record as 22.38; the “Fold change (ratio relative to the control experiment), Second experiment” value is 31.54; the “Fold change (ratio relative to the control experiment), Average value” was 26.96.

On to `O=C(O)CCC(F)(F)c1cc2cc3c(cc2s1)OCO3` [Compound S26], for which, in data set [1], the Judgement entry is “effective (when the Fold change≥2, it is effective)”; the “Fold change (ratio relative to the control experiment), First experiment” value amounted to 16.24; the “Fold change (ratio relative to the control experiment), Second experiment” value worked out at 25.03; the “Fold change (ratio relative to the control experiment), Average value” is 20.62.
